Source: paper PMC10563079 (Molecules, 2023)
Where “and” joins values, the source holds several entries; their conditions need not be identical. Equal values may be shown once. Read-outs that look alike come from different tables or passages of the source. Bridge positions count the residues as written; N and C are the ends. Ends that are not written are not given here. Peptide text beside a SMILES is read from it.

How the values were obtained:
[1] = target: T1, sPHGDH (1-307) (Homo sapiens, UniProt O43175); assay: sPHGDH enzyme activity assay (NADH fluorescence); type: biochemical; details: sPHGDH; 12 h pre-incubation; read-out: IC50 Value
T1 construct: the truncated version of PHGDH (sPHGDH, 1-307); made in house
T1 sequence (O43175 1-307): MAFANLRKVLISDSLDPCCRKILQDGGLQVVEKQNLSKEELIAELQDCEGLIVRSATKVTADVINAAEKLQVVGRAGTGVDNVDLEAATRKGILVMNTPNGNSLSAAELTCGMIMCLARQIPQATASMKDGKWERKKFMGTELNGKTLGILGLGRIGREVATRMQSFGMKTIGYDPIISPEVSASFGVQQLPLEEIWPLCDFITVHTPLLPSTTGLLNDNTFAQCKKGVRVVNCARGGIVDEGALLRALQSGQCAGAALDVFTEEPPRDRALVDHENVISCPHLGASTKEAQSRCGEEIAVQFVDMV
Experimental: (§1) PHGDH activity in the presence of peptides was measured in 96-well plates (100 μL per well) at 25 °C, through monitoring the NADH fluorescence (excitation at 360 nm and emission at 460 nm) over time. PAST1 and its substrate glutamate were also included in order to prevent product inhibition. In the enzyme assays, protein expression and purification, including the truncated version of PHGDH (sPHGDH, 1-307), the full-length PHGDH (1-533), and PAST1, were carried out as described in our previous papers. To evaluate the effects of peptides on enzyme activity, the peptides were pre-incubated with enzyme samples (sPHGDH 453.3 nM or PHGDH 30.9 nM) in the assay buffer (HEPES 50 mM, pH 7.5, 10 mM MgCl2, and 1 mM EDTA) for 12 h. Then, 1.98 μM PAST1, 1 mM NAD^+, and 30 mM glutamate were added and pre-incubated for 10 min before initiating the enzyme reaction via the addition of the substrate (1 mM 3-PG). Fluorescence signals were recorded for 3 min with the kinetics-reading mode of the Biotek plate reader (Synergy). IC50 values were obtained through fitting the data using a three-parameter Hill model of the graph of log dose against the percentage inhibition from three repeated experiments. For those peptides containing two disulfide bonds, a second step of oxidation reaction was carried out to generate the second disulfide pair. […] The purified Acm-protected peptide was then treated with iodine (I2, 1 wt% in MeOH), dropwise under acidic conditions until the solution became brown.

[2] = target: T2, sPHGDH (Homo sapiens, UniProt O43175); assay: Microscale Thermophoresis (MST) binding assay
T2 construct: the truncated version of PHGDH (sPHGDH, 1-307); made in house
T2 sequence (O43175 1-307): T1 sequence (O43175 1-307)
Experimental: In this study, we first used Microscale Thermophoresis assays (MST) to evaluate whether the active peptides found in the enzyme inhibition assay directly bind sPHGDH (Table 2).
The binding affinity between the recombinant sPHGDH and cyclic peptides was measured with a NanoTemper Monolith NT.115 instrument (NanoTemper Technologies, Munich, Germany). sPHGDH was first adjusted to a concentration of 10 μM and then labeled with Monolith™ NT.115 Protein Labeling Kit RED-NHS (NanoTemper Technologies, Germany), according to the protocol of the manufacturer. After the protein labeling experiment was completed, sPHGDH was diluted with binding buffer (50 mM HEPES, pH 7.5, 1 mM EDTA, 10 mM MgCl2, 100 mM NaCl, and 0.005% Tween 20) to ensure that the fluorescent intensity of sPHGDH during the MST assay was about 500 RU. In this assay, the final concentration of sPHGDH after mixing with the peptide was 20 nM. Subsequently, the peptides were serially diluted in binding buffer (16 points, 1:2 dilutions, from 0.5 mM), then mixed and incubated with an equal volume of diluted sPHGDH at room temperature for 16 h. After incubation, the samples were loaded into premium treated capillaries and measured by the NanoTemper Monolith NT.115 instrument (NanoTemper Technologies, Germany). […]

[3] = target: T3, full-length PHGDH (1-533) (Homo sapiens, UniProt O43175); assay: full-length PHGDH enzyme activity assay (NADH fluorescence); type: biochemical; details: IC50 value (μM), full-length PHGDH activity
T3 construct: the full-length PHGDH (1-533); made in house
T3 sequence (O43175 1-533): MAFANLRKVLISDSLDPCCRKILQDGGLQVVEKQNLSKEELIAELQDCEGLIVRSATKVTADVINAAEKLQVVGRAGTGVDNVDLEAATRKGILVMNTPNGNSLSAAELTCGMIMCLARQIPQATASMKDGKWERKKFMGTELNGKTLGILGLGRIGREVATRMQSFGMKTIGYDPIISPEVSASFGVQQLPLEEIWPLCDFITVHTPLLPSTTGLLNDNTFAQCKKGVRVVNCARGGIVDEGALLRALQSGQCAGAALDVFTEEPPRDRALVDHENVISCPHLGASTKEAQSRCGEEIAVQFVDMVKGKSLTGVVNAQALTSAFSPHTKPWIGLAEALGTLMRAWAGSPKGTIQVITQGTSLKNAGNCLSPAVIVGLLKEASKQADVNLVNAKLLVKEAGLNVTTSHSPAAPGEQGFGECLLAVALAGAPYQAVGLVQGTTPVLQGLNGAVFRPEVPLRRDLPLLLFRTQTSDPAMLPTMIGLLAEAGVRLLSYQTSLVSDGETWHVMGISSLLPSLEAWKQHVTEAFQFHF
Experimental: as §1

[4] = target: the molecule itself; assay: cross-linking; sPHGDH 5 µM with peptides (0, 10, 50, 100, 250, 500 µM) and 2.5 mM BS3 in PBS (40 mM, pH 7.3), 25 °C, 30 min; SDS/PAGE; dimer to monomers
[5] = target: truncated version of PHGDH (sPHGDH, 1-307) (human) (UniProt O43175)
[6] = target: truncated version of PHGDH (sPHGDH, 1-307) (human) (UniProt O43175); remark: listed apart in the source

`CSCC[C@@H]1NC(=O)[C@H](CO)NC(=O)[C@H](CC(C)C)NC(=O)[C@H]([C@@H](C)O)NC(=O)[C@H](C)NC(=O)[C@H](CCC(N)=O)NC(=O)[C@@H]2CCCN2C(=O)[C@H]([C@@H](C)O)NC(=O)[C@@H](NC(C)=O)CSSC[C@@H](C(=O)O)NC(=O)[C@H](CCCCN)NC(=O)[C@H](CCCCN)NC(=O)[C@H](CCC(N)=O)NC(=O)[C@H](CCC(=O)O)NC(=O)[C@H](Cc2c[nH]c3ccccc23)NC(=O)[C@H](CO)NC(=O)CNC(=O)[C@H](CC(N)=O)NC(=O)[C@H](CCCCN)NC1=O` [Cyc1-12, C1TPQA TLSMK NGSWE QKKC19] (Ac-CTPQATLSMKNGSWEQKKC-OH; disulfide 1-19) gave an IC50 [1] of 5.6 ± 1.4 µM and a Kd ([2]; MST, sPHGDH 20 nM, 1:1 binding mode, read-out: KD) of 13.4 ± 3.1 µM.

For `CSCC[C@@H]1NC(=O)[C@@H]2CSSC[C@H](NC(=O)[C@H](Cc3c[nH]c4ccccc34)NC(=O)[C@H](CCCCN)NC(=O)CNC(=O)[C@H](CC(=O)O)NC(=O)[C@H](CCCNC(=N)N)NC1=O)C(=O)N[C@@H](CCCNC(=N)N)C(=O)N[C@@H](CCCCN)C(=O)N[C@@H](CCCCN)C(=O)N[C@H](C(=O)O)CSSC[C@H](NC(C)=O)C(=O)N[C@@H]([C@@H](C)O)C(=O)N1CCC[C@H]1C(=O)N[C@@H](CCC(N)=O)C(=O)N[C@@H](C)C(=O)N[C@@H]([C@@H](C)O)C(=O)N[C@@H](C)C(=O)N2` [Cyc2-3, C1TPQA TAC8MR DGKWC15 RKKC19] (Ac-CTPQATACMRDGKWCRKKC-OH; disulfide 1-19, 8-15), the Kd [2] was 5.1 ± 1 µM and the IC50 [3] was 53.1 µM and 32.9 µM.

B1: truncated version of PHGDH (sPHGDH, 1-307) (domain or fragment, human, UniProt O43175 1-307, looked up)
chain: T1 sequence (O43175 1-307)
modifications: labelled with Monolith NT.115 Protein Labeling Kit RED-NHS (in the MST assay only)
notes: human phosphoglycerate dehydrogenase (PHGDH), catalytic unit, residues 1-307; Exists predominantly as a homo-dimer with a small fraction of monomer; also called catalytic unit of PHGDH; source: recombinant
For B1, the “stoichiometry N” value [4] was 2.

B2: cyclic peptide cyc1-5 (peptide)
peptide: CTPQATASMLDGKWEWKKC
modifications: disulfide 1-19; not fully specified (N-terminus); printed as C_1_TPQA TASML DGKWE WKKC_19_
B2 gave an IC50 of inhibition of sPHGDH enzyme activity (NADH fluorescence); the pair blocked is the sPHGDH homo-dimer (m1+m1), differs from the table [5] of 13.7 µM and an IC50 of inhibition of sPHGDH enzyme activity (NADH fluorescence); the pair blocked is the sPHGDH homo-dimer (m1+m1) [6] of 13.4 µM.
